PMC8632988, “Inhibition of SYK and cSrc kinases can protect bone and cartilage in preclinical models of osteoarthritis and rheumatoid arthritis” (Scientific Reports, 2021)
Values joined by “and” are separate entries in the source; they are usually repeats but may differ in a detail not shown here. Equal values may be shown once.

System: DBA/1 mice, CIA model
Test: Collagen-induced arthritis model in mice
Format: in vivo, mouse
Parameters: Total AUC Sum (d1-11) / Total AUC Sum (d1-11), Mean: scale not given here
Conditions: MTX 1.5 mg/kg PO; for Summed Prophylactic (Non-Enrollment) Paw Score / Total AUC Sum (d1-11), Prophylactic (Non-Enrollment) Paw Score: QD
Description: Collagen-induced arthritis (CIA) model was performed at Bolder BioPATH, USA. Study design and animal usage was approved by Bolder BioPATH’s Institutional Animal Care and Use Committee. CIA was induced in 6–7 week old male DBA/1 mice with body weight of 15–26 g (Harlan, Inc) by intradermal injection of Freund’s Complete Adjuvant (Difco) containing bovine type II collagen (Bolder BioPATH) on day 0 and again on day 21 according to the standard protocol. […] After that mice were randomized into six groups: a control group of four, vehicle group and four treatment groups of ten mice each. […] Each paw was scored daily for inflammation. Therapeutic and prophylactic paws were considered. At study termination mice were euthanized by CO2 inhalation followed by cervical dislocation. Fore paws, hind paws, and knees were removed for microscopy.
Mice were weighed on arthritis days 1, 3, 5, 7, 9, and 11 (prior to necropsy). Daily clinical scores were given for each of the paws (right front, left front, right rear, left rear) on days 1–11 using the following criteria:
After 1–2 days in fixative and 4–5 days in 5% formic acid for decalcification, tissues were trimmed, processed for paraffin embedding, sectioned at 8 µm and stained with toluidine blue. Hind paws and knees were embedded and sectioned in the frontal plane. Two joints from each animal were processed for histopathology evaluation. The joints were then scored by two independent readers as indicated below. When scoring, severity of changes as well as number of individual joints affected were considered. When only 1–3 joints of the paws or ankles out of a possibility of numerous metacarpal/metatarsal/digit or tarsal/tibiotarsal joints were affected, an arbitrary assignment of a maximum score of 1, 2 or 3 for parameters below was given depending on severity of changes. If more than 3 joints were involved, the criteria below were applied to the most severely affected/majority of joints.

[1] = all joints, QD (Group 3), group mean
[2] = all joints, QD (Group 3), individual animals

## CN(Cc1cnc2nc(N)nc(N)c2n1)c1ccc(C(=O)N[C@@H](CCC(=O)O)C(=O)O)cc1 [MTX, methotrexate, reference compound]
Day 11, group mean
  Summed Prophylactic (Non-Enrollment) Paw Score: 7.40
Day 11, individual animals
  Summed Prophylactic (Non-Enrollment) Paw Score: 6 and 5 and 4 and 14 and 10 and 8
Group mean
  Total AUC Sum (d1-11), Prophylactic (Non-Enrollment) Paw Score: 52.20
Individual animals
  Total AUC Sum (d1-11), Prophylactic (Non-Enrollment) Paw Score: 41.0 and 33.5 and 35.0 and 16.0 and 80.0 and 101.0 and 88.0 and 58.0 and 34.5
All joints, QD (Group 3)
  % inhibition, Bone Resorption score: 8%
  % inhibition, Cartilage Damage score: 3%
  % inhibition, Inflammation score: 4%
  % inhibition, Pannus score: 8%
  % inhibition, Periosteal Bone Formation score: 3%
  % inhibition, Periosteal Bone Width: 6%
  % inhibition, Summed Scores: 5%
[1]
  Histopathology Scores Bone Resorption, Mean: 1.58
  Histopathology Scores Cartilage Damage, Mean: 3.21
  Histopathology Scores Inflammation, Mean: 3.55
  Histopathology Scores Pannus, Mean: 1.58
  Histopathology Scores Periosteal Bone Formation, Mean: 1.10
  Histopathology Scores Summed Scores, Mean: 11.03
  Periosteal Bone Width (40*25x measure), Mean: 92.67 μm
[2]
  Histopathology Scores Bone Resorption: 1.17 and 1.67 and 1.08 and 1.00 and 2.33 and 1.58 and 1.25 and 1.83 and 2.25
  Histopathology Scores Cartilage Damage: 1.92 and 3.00 and 1.67 and 2.17 and 4.17 and 4.33 and 3.83 and 3.17 and 4.83
  Histopathology Scores Inflammation: 2.33 and 3.08 and 2.50 and 2.25 and 4.67 and 4.83 and 4.00 and 3.33 and 3.83
  Histopathology Scores Pannus: 1.17 and 1.67 and 1.08 and 1.00 and 2.33 and 1.58 and 1.25 and 1.83 and 2.25
  Histopathology Scores Periosteal Bone Formation: 0.83 and 1.33 and 0.50 and 1.17 and 1.50
  Histopathology Scores Summed Scores: 7.42 and 10.75 and 6.83 and 7.25 and 13.33 and 15.33 and 12.17 and 9.67 and 12.00 and 15.50
  Periosteal Bone Width (40*25x measure): 80.00 μm and 106.67 μm and 40.00 μm and 140.00 μm and 86.67 μm and 60.00 μm and 146.67 μm
therapeutic/enrollment paw score, QD (Group 3)
  % inhibition to Vehicle, Total AUC Sum (d1-11): 3%
therapeutic/enrollment paw score, QD (Group 3), group mean
  Total AUC Sum (d1-11), Mean: 61.65
therapeutic/enrollment paw score, QD (Group 3), individual animals
  Total AUC Sum (d1-11): 43 and 36 and 65 and 75 and 130 and 82 and 38 and 78
therapeutic/enrollment paws, Day 1, QD (Group 3)
  % inhibition to Vehicle, paw score Day 1: 0%
therapeutic/enrollment paws, Day 1, QD (Group 3), group mean
  Summed Therapeutic (Enrollment) Paw Score Day 1, Mean: 3.20
therapeutic/enrollment paws, Day 1, QD (Group 3), individual animals
  Summed Therapeutic (Enrollment) Paw Score Day 1: 2 and 4 and 6
therapeutic/enrollment paws, Day 2, QD (Group 3)
  % inhibition to Vehicle, paw score Day 2: 9%
therapeutic/enrollment paws, Day 2, QD (Group 3), group mean
  Summed Therapeutic (Enrollment) Paw Score Day 2, Mean: 4.30
therapeutic/enrollment paws, Day 2, QD (Group 3), individual animals
  Summed Therapeutic (Enrollment) Paw Score Day 2: 3 and 2 and 5 and 6 and 8
therapeutic/enrollment paws, Day 3, QD (Group 3)
  % inhibition to Vehicle, paw score Day 3: 12%
therapeutic/enrollment paws, Day 3, QD (Group 3), group mean
  Summed Therapeutic (Enrollment) Paw Score Day 3, Mean: 5.20
therapeutic/enrollment paws, Day 3, QD (Group 3), individual animals
  Summed Therapeutic (Enrollment) Paw Score Day 3: 4 and 3 and 5 and 7 and 9
therapeutic/enrollment paws, Day 4, QD (Group 3)
  % inhibition to Vehicle, paw score Day 4: −2%
therapeutic/enrollment paws, Day 4, QD (Group 3), group mean
  Summed Therapeutic (Enrollment) Paw Score Day 4, Mean: 6.30
therapeutic/enrollment paws, Day 4, QD (Group 3), individual animals
  Summed Therapeutic (Enrollment) Paw Score Day 4: 4 and 3 and 7 and 8 and 12 and 9
therapeutic/enrollment paws, Day 5, QD (Group 3)
  % inhibition to Vehicle, paw score Day 5: −2%
therapeutic/enrollment paws, Day 5, QD (Group 3), group mean
  Summed Therapeutic (Enrollment) Paw Score Day 5, Mean: 6.70
therapeutic/enrollment paws, Day 5, QD (Group 3), individual animals
  Summed Therapeutic (Enrollment) Paw Score Day 5: 4 and 7 and 8 and 15 and 9
therapeutic/enrollment paws, Day 6, QD (Group 3)
  % inhibition to Vehicle, paw score Day 6: −2%
therapeutic/enrollment paws, Day 6, QD (Group 3), group mean
  Summed Therapeutic (Enrollment) Paw Score Day 6, Mean: 6.70
therapeutic/enrollment paws, Day 6, QD (Group 3), individual animals
  Summed Therapeutic (Enrollment) Paw Score Day 6: 4 and 7 and 8 and 15 and 9
therapeutic/enrollment paws, Day 7, QD (Group 3)
  % inhibition to Vehicle, paw score Day 7: 0%
therapeutic/enrollment paws, Day 7, QD (Group 3), group mean
  Summed Therapeutic (Enrollment) Paw Score Day 7, Mean: 6.80
therapeutic/enrollment paws, Day 7, QD (Group 3), individual animals
  Summed Therapeutic (Enrollment) Paw Score Day 7: 5 and 4 and 7 and 8 and 15 and 9
therapeutic/enrollment paws, Day 8, QD (Group 3)
  % inhibition to Vehicle, paw score Day 8: 3%
therapeutic/enrollment paws, Day 8, QD (Group 3), group mean
  Summed Therapeutic (Enrollment) Paw Score Day 8, Mean: 6.80
therapeutic/enrollment paws, Day 8, QD (Group 3), individual animals
  Summed Therapeutic (Enrollment) Paw Score Day 8: 5 and 4 and 7 and 8 and 15 and 9
therapeutic/enrollment paws, Day 9, QD (Group 3)
  % inhibition to Vehicle, paw score Day 9: 5%
therapeutic/enrollment paws, Day 9, QD (Group 3), group mean
  Summed Therapeutic (Enrollment) Paw Score Day 9, Mean: 6.90
therapeutic/enrollment paws, Day 9, QD (Group 3), individual animals
  Summed Therapeutic (Enrollment) Paw Score Day 9: 5 and 4 and 7 and 8 and 15 and 9
therapeutic/enrollment paws, Day 10, QD (Group 3)
  % inhibition to Vehicle, paw score Day 10: 7%
therapeutic/enrollment paws, Day 10, QD (Group 3), group mean
  Summed Therapeutic (Enrollment) Paw Score Day 10, Mean: 6.90
therapeutic/enrollment paws, Day 10, QD (Group 3), individual animals
  Summed Therapeutic (Enrollment) Paw Score Day 10: 5 and 4 and 7 and 8 and 15 and 9
therapeutic/enrollment paws, Day 11, QD (Group 3)
  % inhibition to Vehicle, paw score Day 11: 7%
therapeutic/enrollment paws, Day 11, QD (Group 3), group mean
  Summed Therapeutic (Enrollment) Paw Score Day 11, Mean: 6.90
therapeutic/enrollment paws, Day 11, QD (Group 3), individual animals
  Summed Therapeutic (Enrollment) Paw Score Day 11: 5 and 4 and 7 and 8 and 15 and 9
